Settings: Gas, rotating-body viscometer for gases

N#N [nitrogen]
Settings	viscosity [mPa·s]
253.21 K, 100.8 kPa	0.01561
253.21 K, 200.9 kPa	0.01564
253.21 K, 400.7 kPa	0.01566
253.21 K, 600.8 kPa	0.01571
253.21 K, 800.8 kPa	0.01574
253.21 K, 1000.9 kPa	0.01579
253.21 K, 1200.9 kPa	0.01584
273.24 K, 100.7 kPa	0.01659
273.24 K, 200.8 kPa	0.01661
273.24 K, 400.5 kPa	0.01664
273.24 K, 600.4 kPa	0.01667
273.24 K, 800.6 kPa	0.01671
273.24 K, 1000.6 kPa	0.01674
273.24 K, 1499.8 kPa	0.01685
298.24 K, 800.5 kPa	0.01785
298.25 K, 99.6 kPa	0.01776
298.25 K, 100.7 kPa	0.01777
298.25 K, 200.5 kPa	0.01778
298.25 K, 400.7 kPa	0.0178
298.25 K, 400.8 kPa	0.0178
298.25 K, 600.2 kPa	0.01783
298.25 K, 1000.1 kPa	0.01789
298.25 K, 1500.2 kPa	0.01799
323.26 K, 100.6 kPa	0.0189
323.26 K, 101.5 kPa	0.0189
323.26 K, 200.7 kPa	0.0189
323.26 K, 400.4 kPa	0.01893
323.26 K, 600.8 kPa	0.01896
323.26 K, 800.2 kPa	0.01896
323.26 K, 1000.6 kPa	0.01901
323.26 K, 1000.9 kPa	0.01901
323.27 K, 398.8 kPa	0.01893
323.27 K, 1501.9 kPa	0.01907
323.27 K, 1802.1 kPa	0.01913
373.29 K, 100.8 kPa	0.02102
373.29 K, 201.1 kPa	0.02104
373.29 K, 401 kPa	0.02106
373.29 K, 601 kPa	0.02107
373.29 K, 1000.3 kPa	0.02111
373.29 K, 1500.6 kPa	0.02118
373.29 K, 1807.2 kPa	0.02122
423.33 K, 100.9 kPa	0.02302
423.33 K, 200.9 kPa	0.02303
423.33 K, 400.7 kPa	0.02306
423.33 K, 600.6 kPa	0.02308
423.33 K, 1000.5 kPa	0.02311
423.33 K, 1500.2 kPa	0.02316
423.33 K, 1799.4 kPa	0.02319
473.38 K, 100.7 kPa	0.02494
473.38 K, 200.8 kPa	0.02495
473.38 K, 398.5 kPa	0.02496
473.38 K, 600.9 kPa	0.02497
473.38 K, 1000.7 kPa	0.02499
473.38 K, 1500.6 kPa	0.02503
473.38 K, 1799.3 kPa	0.02505
